From patent publication US20230094870A1, “CHEMILU[…] FOR TUBERCULOSIS” (priority 2020, published 2023)
Non-standard residues stand in square brackets, D forms with d. Residues, ends and D or L forms follow the SMILES beside them. *: point of attachment. X1 = COC1(c2ccc(/C=C/C(=O)O)c(OCc3ccc(N*)cc3)c2Cl)OOC12C1CC3CC(C1)CC2C3; Phe(4-Cl) = N[C@@H](Cc1ccc(Cl)cc1)C(=O)O; Igl = N[C@H](C(=O)O)C1Cc2ccccc2C1

How the values were obtained:
Mtb strain mc^26020 = assay type: cell-based, Mycobacterium tuberculosis; settings: Mtb mc^26020 incubated with FLASH for 1 h
[1] = system: nontuberculous mycobacteria (NTM); experiment: Detection of Mtb versus nontuberculous mycobacteria cells with FLASH probe; settings: IL values for millions or thousands of cells of each species, 1 h with FLASH
Mtb strain H37Rv = assay type: cell-based, Mycobacterium tuberculosis; settings: Mtb H37Rv incubated with FLASH for 1 h
recombinant Hip1 enzyme = target: T1, recombinant Hip1 enzyme (Mycobacterium tuberculosis, UniProt P9WHR3); experiment: Hip1 activity measurement with FLASH probe (chemiluminescence); assay type: biochemical; settings: total integrated luminescence after 1 h
T1 construct: Recombinant Hip1 was purified as previously described (Lentz et al., 2016); made in house
T1 sequence (P9WHR3 31-520): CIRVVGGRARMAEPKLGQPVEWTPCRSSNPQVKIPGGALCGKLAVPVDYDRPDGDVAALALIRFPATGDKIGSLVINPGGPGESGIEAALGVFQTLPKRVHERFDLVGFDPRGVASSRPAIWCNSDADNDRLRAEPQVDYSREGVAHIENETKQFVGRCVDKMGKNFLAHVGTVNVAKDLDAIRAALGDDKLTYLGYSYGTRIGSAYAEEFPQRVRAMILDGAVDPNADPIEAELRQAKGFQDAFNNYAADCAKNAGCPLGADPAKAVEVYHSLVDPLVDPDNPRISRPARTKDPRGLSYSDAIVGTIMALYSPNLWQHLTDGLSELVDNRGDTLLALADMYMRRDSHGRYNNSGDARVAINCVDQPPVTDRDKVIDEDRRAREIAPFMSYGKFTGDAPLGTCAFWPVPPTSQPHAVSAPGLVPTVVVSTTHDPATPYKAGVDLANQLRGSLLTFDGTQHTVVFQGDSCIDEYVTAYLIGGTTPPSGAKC

Q: Which “LOD, lowest number of bacterial cells that can be detected by the probe” value (Mtb strain mc^26020) does the source give for `COC1(c2ccc(/C=C/C(=O)O)c(OCc3ccc(NC(=O)[C@H](CC(C)C)NC(=O)[C@H](CCCCN)NC(=O)[C@H](Cc4ccc(Cl)cc4)NC(=O)[C@@H](NC(C)=O)C4Cc5ccccc5C4)cc3)c2Cl)OOC12C1CC3CC(C1)CC2C3` (stereo partly shown) [FLASH] (Ac-[Igl][Phe(4-Cl)]KL-X1) here?
A: ≤ 100,000 cells

Q: And the “sensitivity to Mtb compared to nontuberculous mycobacteria” value [1]?
A: more sensitive to Mtb compared to common nontuberculous mycobacteria

Q: And the “LOD, lowest number of bacterial cells that can be detected by the probe” value (Mtb strain H37Rv)?
A: ≤ 100,000 cells

Q: And the “limit of detection (LOD) of Hip1 enzyme” value (recombinant Hip1 enzyme)?
A: ~2 pmol
